These results are taken from US9011988B2, “Liquid-crystal compound, liquid-crystal composition, light absorption anisotropic film, and liquid-crystal display device” (Fujifilm Corporation, priority 2010, dated 2015).

Format in all cases: physicochemical
The nature of data set [1]: Maximum absorption wavelength of the dye in N-methylpyrrolidone (UV-2550 spectrophotometer). The settings on record: for λmax: in N-methylpyrrolidone solvent. The protocol: <Maximum Absorption Wavelength>
The maximum absorption wavelength of the dye in N-methylpyrrolidone solvent was measured with a UV-2550 spectrophotometer (made by Shimadzu Corp.).

Data set [2] in a line: Phase transition temperature by DSC thermal analysis and polarizing microscope observation. On the procedure: <Phase Transition Temperature>
The phase transition temperature was determined by thermal analysis with a DSC measurement apparatus (made by Seiko Instruments) and by visual observation with a polarizing microscope.
In general terms: In DSC, transitions show as peaks or steps in heat flow.

Data set [3] in a line: Light resistance of light absorption anisotropic film (change in intensity of absorption). The protocol:
While being heated from room temperature to 200° C., each of the light absorption anisotropic films that had been prepared was irradiated with 10 mW of light and the light resistance was determined based on the change in the intensity of absorption.

Data set [4] is described as follows: Solubility in chloroform / preparation of chloroform coating liquid. The protocol: The solubility of these compounds in chloroform was measured.
Following stirring and dissolution, a liquid-crystal composition coating liquid was obtained. Each of the coating liquids was then coated on an alignment film that had been formed on a glass substrate and had been rubbed. Subsequently, the chloroform was allowed to dry naturally at room temperature, yielding individual light absorption anisotropic films. The polyvinylalcohol indicated below was employed as the alignment film.

[5] abbreviates: light absorption anisotropic film irradiated with 10 mW of light while heated from room temperature to 200° C., change in intensity of absorption.

`CCCCCCOc1ccc(N=Nc2ccc(C=Cc3cc(OC)c(C=Cc4ccc(N=Nc5ccc(OCCCCCC)cc5)cc4)cc3OC)cc2)cc1` [A-34] registered a λmax in data set [1] of 463.4 nm. Besides, in data set [2], the “temperature range in which nematic liquid crystallinity was confirmed” value was no less than 247 °C.

As to `CCCCCCOc1ccc(N=Nc2ccc(C=Cc3cc(OCCOCCOCCOC)c(C=Cc4ccc(N=Nc5ccc(OCCCCCC)cc5)cc4)cc3OC)cc2)cc1` [A-3], in data set [3] (setting [5]), the Light resistance result is listed as “Good”. The λmax in data set [1] is given as 463.3 nm.

On to `CCCCCCOc1ccc(N=Nc2ccc(C=Cc3cc(OCCOCCOCCO)c(C=Cc4ccc(N=Nc5ccc(OCCCCCC)cc5)cc4)cc3OC)cc2)cc1` [A-4], for which the Light resistance result in data set [3] (setting [5]) is “Good”. The molecule further returned a λmax in data set [1] of 463.8 nm.

As for `CCCCCCOc1ccc(N=Nc2ccc(C=Cc3cc(OCCOCCOCCOC)c(C=Cc4ccc(N=Nc5ccc(OCCCCCC)cc5)cc4)cc3OCCOCCOCCOC)cc2)cc1` [A-10], the Light resistance entry in data set [3] (setting [5]) was “Good”. Further, the λmax in data set [1] is listed as 457.5 nm.

`CCCCCCCCCCCCCCCCCCOc1cc(C=Cc2ccc(N=Nc3ccc(OCCCCCC)cc3)cc2)c(OC)cc1C=Cc1ccc(N=Nc2ccc(OCCCCCC)cc2)cc1` [A-9]: in data set [3] (setting [5]), the Light resistance result is “Good”. The molecule further gave a λmax in data set [1] of 460.0 nm.

For the molecule `CCCCc1ccc(N=Nc2ccc(N=Nc3ccc(N=Nc4ccc(N=Nc5ccc(N=Nc6ccc(CCCC)cc6)cc5)cc4C)c(C)c3)cc2)cc1` [Comparative Compound 1], the “preparation of coating liquid” value in data set [4] (1 weight part compound in 99 weight parts of chloroform) is “precluding preparation of a coating liquid”. In addition, in data set [4], the “solubility in chloroform (in words)” value is reported as “almost no solubility”. Besides, the “temperature range in which nematic liquid crystallinity was confirmed” value in data set [2] is no less than 220 °C.

In the case of `CCCCCCOc1ccc(/C=C/c2ccc(/C=C/c3cc(OCCOCCOCCOCCOCCOCCO)c(/C=C/c4ccc(/C=C/c5ccc(OCCCCCC)cc5)cc4)cc3OC)cc2)cc1` [Comparative Compound 2, reference compound], the Light resistance result is on record as “poor light resistance” in data set [3] (film heated from room temperature to 200° C., irradiated with 10 mW of light) and “Poor” in data set [3] (setting [5]). Also, the “solubility in chloroform (in words)” value in data set [4] is “good solubility”. In addition, the original absorption wavelength in data set [1] came out at 432.5 nm.
